Laboratory results published in PubChem BioAssay (NCI).
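GI50 is the concentration that inhibits growth by half. TGI denotes the concentration required for complete inhibition of growth.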

Tests used:
Assay in all cases: growth of human tumour cells (NCI), 384-well format
ACHN renal = tested on: ACHN renal
T-47D breast = tested on: T-47D breast
SN12C renal = tested on: SN12C renal
LOX IMVI melanoma = tested on: LOX IMVI melanoma
CAKI-1 renal = tested on: CAKI-1 renal
IGROV1 ovarian = tested on: IGROV1 ovarian
K-562 leukemia = tested on: K-562 leukemia
SF-268 CNS = tested on: SF-268 CNS
HL-60(TB) leukemia = tested on: HL-60(TB) leukemia
NCI-H522 lung = tested on: NCI-H522 lung
EKVX NSCLC = tested on: EKVX NSCLC
U251 glioblastoma = tested on: U251 glioblastoma
HCT-116 colon = tested on: HCT-116 colon

N#Cc1c(N)nc(N)nc1N[C@H](c1nc2c(F)ccc(Cl)c2c(=O)n1-c1cccnc1)C1CC1
GI50 (ACHN renal): 7.04 µM | TGI (ACHN renal): > 100 µM | GI50 (T-47D breast): 1.02 µM | TGI (T-47D breast): 5.99 µM | GI50 (SN12C renal): 4.29 µM | TGI (SN12C renal): > 100 µM | GI50 (LOX IMVI melanoma): 5.13 µM | TGI (LOX IMVI melanoma): 18.6 µM | GI50 (CAKI-1 renal): 2.3 µM | TGI (CAKI-1 renal): > 100 µM | GI50 (IGROV1 ovarian): 1.64 µM | TGI (IGROV1 ovarian): 4.18 µM | GI50 (K-562 leukemia): 17.8 µM | TGI (K-562 leukemia): 38.1 µM | GI50 (SF-268 CNS): 13.9 µM | TGI (SF-268 CNS): 51.1 µM | GI50 (HL-60(TB) leukemia): 1.13 µM | TGI (HL-60(TB) leukemia): 7.85 µM | GI50 (NCI-H522 lung): 16.9 µM | TGI (NCI-H522 lung): 48.5 µM | GI50 (EKVX NSCLC): 2.63 µM | TGI (EKVX NSCLC): 17.6 µM | GI50 (U251 glioblastoma): 18.3 µM | TGI (U251 glioblastoma): 61.9 µM | GI50 (HCT-116 colon): 16.1 µM | TGI (HCT-116 colon): 35.9 µM
